Assay results from article PMC11761228, “Cinnamic Acid Compounds (p-Coumaric, Ferulic, and p-Methoxycinnamic Acid) as Effective Antibacterial Agents Against Colistin-Resistant Acinetobacter baumannii” (Antibiotics, 2025).
≈ marks a conversion by molar mass, not a printed value.

What was measured:
COLR-Ab isolates [1] = assay: BD Phoenix100 automated antibiotic susceptibility testing; format: cell-based, Acinetobacter baumannii; set-up: key to Susceptibility category: Resistant; Intermediate; Susceptible; conditions: for MIC: Acinetobacter baumannii; for Susceptibility category: CLSI criteria
Method: Five COLR-Ab strains isolated from various clinical specimens were obtained between 2016 and 2017 from the Microbiology Department of the Central Laboratory of Akdeniz University Hospital, Antalya, Turkey. All isolates were isolated from tracheal samples obtained from patients hospitalized in the intensive care unit. The stock solutions of A. baumannii strains were cultivated in blood agar (Becton Dickinson, Franklin Lakes, NJ, USA) at 35 ± 2 °C for 18–24 h. Identification of the colonies was confirmed using Matrix-Assisted Laser Desorption/Ionization Time-of-Flight (MALDI-TOF) mass spectroscopy (Bruker Daltonics, Bremen, Germany). […] The automated system was evaluated according to the criteria of the CLSI. […] E. coli NCTC 13846 COL was used as a quality control strain in broth dilution method to verify the MIC values. The isolates were stored at −80 °C until use and sub-cultured on blood agar for in vitro testing.

A. baumannii isolates = conditions: A. baumannii isolates, combination with COL; cited from earlier work
COLR-Ab isolates [2] = assay: Broth microdilution MIC determination (CLSI); format: cell-based, Acinetobacter baumannii
Method: The broth microdilution method, as recommended by the CLSI, was used to determine the MIC values of COL, p-CA, FA, and p-MCA [46]. The serial two-fold dilutions of antimicrobial agents were prepared using 96-well microplates with cation-adjusted Mueller-Hinton Broth (MHB) (CAMHB, Merck KGaA, Darmstadt, Germany). Firstly, an initial concentration of 8192 µg/mL was chosen to determine the MIC values of all compounds against COLR-Ab isolates. […] The bacterial suspension was adjusted to the 0.5 McFarland standard and added to each well (final bacterial concentration: 5 × 10^5 colony forming units [CFU]/mL). Additionally, the microdilution plates included controls for bacterial growth (CAMHB + bacteria) and medium sterility (CAMHB). Microdilution plates were incubated at 35 ± 2 °C for 18–24 h. The MIC values were calculated by comparing the growth densities in the antibiotic-containing wells to those in the control wells used in each test set. Each experiment was conducted in triplicate.

[3] = test system: Escherichia coli NCTC 13846; assay: Broth microdilution MIC, quality control strain; format: cell-based; conditions: E. coli NCTC 13846 quality control strain
Method: (§1) Five COLR-Ab strains isolated from various clinical specimens were obtained between 2016 and 2017 from the Microbiology Department of the Central Laboratory of Akdeniz University Hospital, Antalya, Turkey. All isolates were isolated from tracheal samples obtained from patients hospitalized in the intensive care unit. The stock solutions of A. baumannii strains were cultivated in blood agar (Becton Dickinson, Franklin Lakes, NJ, USA) at 35 ± 2 °C for 18–24 h. Identification of the colonies was confirmed using Matrix-Assisted Laser Desorption/Ionization Time-of-Flight (MALDI-TOF) mass spectroscopy (Bruker Daltonics, Bremen, Germany). […] The automated system was evaluated according to the criteria of the CLSI. The colistin broth disk elution method was used to test COL sensitivity, and all five isolates selected for the study were resistant to COL. E. coli NCTC 13846 COL was used as a quality control strain in broth dilution method to verify the MIC values. The isolates were stored at −80 °C until use and sub-cultured on blood agar for in vitro testing.
The broth microdilution method, as recommended by the CLSI, was used to determine the MIC values of COL, p-CA, FA, and p-MCA [46]. […] The MIC values were calculated by comparing the growth densities in the antibiotic-containing wells to those in the control wells used in each test set. […]

[4] = test system: biofilm formation of COLR-Ab isolates; assay: Antibiofilm activity, microtiter plate-based crystal violet technique; format: cell-based, Acinetobacter baumannii; conditions: all COL doses except 1 μg/mL for COLR-Ab4; COLR-Ab1, 3, 4, 5
Method: Following the incubation period, the microtiter plates were gently washed three times with PBS. Subsequently, 200 µL of methanol (99%) was added to each well and left for 15 min. The methanol was then removed from the wells and the plate was left to dry for approximately 30 min, thus completing the fixation process. Then, 200 µL of 0.1% CV solution was added to each well and incubated for 20 min at room temperature. The plates were washed three times with PBS in order to remove the excess stain, and then 150 μL of 95% ethanol was added to the wells and incubated for 20 min. The optical density of the CV-stained biofilm was measured at a wavelength of 575 nm using a Thermo Labsystem Multiscan Spectrum microtiter plate reader (Thermolabsystem, Chantilly, VA, USA). Each experiment was conducted in triplicate.
In order to evaluate the antibiofilm activity of COL, p-CA, FA, and p-MCA, a 96-well microtiter plate-based CV test was carried out, with minor modifications to the methods previously described by Kırmusaoglu (2019) and Haney et al. (2021). Briefly, bacteria were inoculated into MHB medium containing 0.2% glucose and incubated at 37 °C for 16–20 h. The bacterial suspension, adjusted to 0.5 McFarland using the same medium, was prepared to a final concentration of 5 × 10^5 CFU/mL and inoculated into 96-well flat-bottom microtitre plates. […] Wells containing only medium were used as negative controls (MHB), and wells containing only medium and bacteria were used as growth controls. The plates were then incubated overnight at 35 ± 2 °C in a normal atmosphere. Following incubation, CV staining procedures were carried out in a similar manner to Section 4.4.
The antibiofilm index was calculated using the following formula:% Biofilm Mass = (100 × Sample OD575/Growth Control OD575)

COLR-Ab isolates [5] = assay: Colistin broth disk elution method; format: cell-based, Acinetobacter baumannii; set-up: key to Susceptibility category: Resistant; Intermediate; Susceptible
Method: as §1

[6] = COLR-Ab1, BD Phoenix 100 system
[7] = COLR-Ab2, BD Phoenix 100 system
[8] = COLR-Ab3, BD Phoenix 100 system
[9] = COLR-Ab4, BD Phoenix 100 system
[10] = COLR-Ab5, BD Phoenix 100 system
[11] = COLR-Ab1, colistin broth disk elution
[12] = COLR-Ab2, colistin broth disk elution
[13] = COLR-Ab3, colistin broth disk elution
[14] = COLR-Ab4, colistin broth disk elution
[15] = COLR-Ab5, colistin broth disk elution

| Compound | MIC (COLR-Ab isolates [1]; [6]) | MIC (COLR-Ab isolates [1]; [7]) | MIC (COLR-Ab isolates [1]; [8]) | MIC (COLR-Ab isolates [1]; [9]) | MIC (COLR-Ab isolates [1]; [10]) | Susceptibility category (COLR-Ab isolates [1]; [6]) | Susceptibility category (COLR-Ab isolates [1]; [7]) | Susceptibility category (COLR-Ab isolates [1]; [8]) | Susceptibility category (COLR-Ab isolates [1]; [9]) | Susceptibility category (COLR-Ab isolates [1]; [10]) | Combination effect with COL in words (A. baumannii isolates) | further results |
| --- | --- | --- | --- | --- | --- | --- | --- | --- | --- | --- | --- | --- |
| NCC[C@H](O)C(=O)N[C@@H]1C[C@H](N)[C@@H](O[C@H]2O[C@H](CN)[C@@H](O)[C@H](O)[C@H]2O)[C@H](O)[C@H]1O[C@H]1O[C@H](CO)[C@@H](O)[C@H](N)[C@H]1O [AMK, Amikacin] | ≤ 4 µg/mL | > 16 µg/mL | > 16 µg/mL | > 16 µg/mL | > 16 µg/mL | S | R | R | R | R | – | – |
| CNC(C)C1CCC(N)C(OC2C(N)CC(N)C(OC3OCC(C)(O)C(NC)C3O)C2O)O1 (stereo not shown) [GEN, Gentamicin] | ≤ 1 µg/mL | > 4 µg/mL | > 4 µg/mL | > 4 µg/mL | > 4 µg/mL | S | R | R | R | R | – | – |
| C[C@@H](O)[C@H]1C(=O)N2C(C(=O)O)=C(SCCN=CN)C[C@H]12 [IPM, Imipenem] | ≤ 0.25 µg/mL | > 8 µg/mL | 4 µg/mL (≈ 13.4 µM) | > 8 µg/mL | > 8 µg/mL | S | R | I | R | R | – | – |
| C[C@@H](O)[C@H]1C(=O)N2C(C(=O)O)=C(S[C@@H]3CN[C@H](C(=O)N(C)C)C3)[C@H](C)[C@H]12 [MEM, Meropenem] | ≤ 0.125 µg/mL | > 8 µg/mL | > 8 µg/mL | > 8 µg/mL | > 8 µg/mL | S | R | R | R | R | – | – |
| CCN[C@@H]1C[C@H](N)[C@@H](O[C@H]2OC(CN)=CC[C@H]2N)[C@H](O)[C@H]1O[C@H]1OC[C@](C)(O)[C@H](NC)[C@H]1O [NET, Netilmicin] | 1 µg/mL (≈ 2.1 µM) | > 4 µg/mL | > 4 µg/mL | > 4 µg/mL | > 4 µg/mL | S | R | R | R | R | – | – |
| O=C(O)/C=C/c1ccc(O)c(O)c1 [caffeic acid] | – | – | – | – | – | – | – | – | – | – | Synergistic activity | – |
| O=C(O)c1cc(O)c(O)c(O)c1 [gallic acid] | – | – | – | – | – | – | – | – | – | – | Synergistic activity | – |
| O=C(O)c1ccc(O)c(O)c1 [protocatechuic acid] | – | – | – | – | – | – | – | – | – | – | Synergistic activity | – |
| colistin | – | – | – | – | – | – | – | – | – | – | – | MIC (COLR-Ab isolates [2]; COLR-Ab1): 32 µg/mL; MIC (COLR-Ab isolates [2]; COLR-Ab2): 64 µg/mL; MIC (COLR-Ab isolates [2]; COLR-Ab3): 64 µg/mL; MIC (COLR-Ab isolates [2]; COLR-Ab4): 128 µg/mL; MIC (COLR-Ab isolates [2]; COLR-Ab5): 64 µg/mL; MIC [3]: 4 µg/mL; Inhibition of biofilm formation [4]: 19.7–75.2%; MIC (COLR-Ab isolates [5]; [11]): > 4 µg/mL; Susceptibility category (COLR-Ab isolates [5]; [11]): R; MIC (COLR-Ab isolates [5]; [12]): > 4 µg/mL; Susceptibility category (COLR-Ab isolates [5]; [12]): R; MIC (COLR-Ab isolates [5]; [13]): > 4 µg/mL; Susceptibility category (COLR-Ab isolates [5]; [13]): R; MIC (COLR-Ab isolates [5]; [14]): > 4 µg/mL; Susceptibility category (COLR-Ab isolates [5]; [14]): R; MIC (COLR-Ab isolates [5]; [15]): > 4 µg/mL; Susceptibility category (COLR-Ab isolates [5]; [15]): R |
